Measured values: patent US9211310B2, “Use of a Chinese medicine composition in preparing medicaments for treating secondary prevention of myocardial infarction” (TASLY PHARMACEUTICAL GROUP CO., LTD, priority 2010, dated 2015)

Test system: patients after acute myocardial infarction
Assay: Life quality, Seattle Angina Questionnaire (SAQ), same clinical trial
Format: in vivo, human
Conditions: Follow-up
Description: 3508 patients who were in accordance with the diagnostic standards of AMI for 28 days to 2 years and differentiated as Qi deficiency and blood stagnation syndrome by TCM were studied. 0.5 g Chinese medicine composition prepared by the method of EXAMPLE 1 (Coded as QSYQ) was administrated half an hour after meal, 3 times per day.
There were 19 questions in the Seattle angina questionnaire (SAQ), including 5 parts: physical limitation (PL), anginal stability (AS), anginal frequency (AF), treatment satisfaction (TS) and disease perception (DP). After being given necessary explanation by doctors, the questions were answered independently by patients.
They included the overall survival time, angina pectoris score, TCM symptom score and life quality score, where angina pectoris score, TCM symptom score and life quality score were evaluated at randomization, in 1st, 3rd, 6th, 9th, 12th month after treatment and 18th month after follow-up.
All evaluation results of SAQ were described during the period of observation, and Wilcoxon rank sum test was used for inter-group comparison.
The evaluation results in the SAQ were depicted in different observations, and inter-group comparison was tested by Wilcoxon Rank-sum test.

[1] = FAS, second line headed Not limited (r60)

CC(=O)Oc1ccccc1C(=O)O [Control group, aspirine]
SAQ 7th question, Mostly satisfied: number of patients (FAS): 908
SAQ 7th question, Partly satisfied: % of patients (FAS): (6.68%)
SAQ 7th question, Partly satisfied: number of patients (FAS): 97
SAQ Question 1-1 Mildly limited, number of patients (FAS): 6
SAQ Question 1-1 Mildly limited, percent of patients (FAS): (0.42%)
SAQ Question 1-1 Moderately limited, number of patients (FAS): 1
SAQ Question 1-1 Moderately limited, percent of patients (FAS): (0.07%)
SAQ Question 1-1 Not limited, number of patients (FAS): 1386
SAQ Question 1-1 Not limited, percent of patients (FAS): (95.98%)
SAQ Question 1-1 Other reasons, number of patients (FAS): 5
SAQ Question 1-1 Other reasons, percent of patients (FAS): (0.35%)
SAQ Question 1-1 Severely limited, number of patients (FAS): 1
SAQ Question 1-1 Severely limited, percent of patients (FAS): (0.07%)
SAQ Question 1-1 Slightly limited, number of patients (FAS): 45
SAQ Question 1-1 Slightly limited, percent of patients (FAS): (3.12%)
SAQ Question 1-2 Mildly limited, number of patients (FAS): 8
SAQ Question 1-2 Mildly limited, percent of patients (FAS): (0.55%)
SAQ Question 1-2 Moderately limited, number of patients (FAS): 0
SAQ Question 1-2 Moderately limited, percent of patients (FAS): (0.00%)
SAQ Question 1-2 Not limited, number of patients (FAS): 1370
SAQ Question 1-2 Not limited, percent of patients (FAS): (94.88%)
SAQ Question 1-2 Severely limited, number of patients (FAS): 2
SAQ Question 1-2 Severely limited, percent of patients (FAS): (0.14%)
SAQ Question 1-2 Slightly limited, number of patients (FAS): 57
SAQ Question 1-2 Slightly limited, percent of patients (FAS): (3.95%)
SAQ Question 1-6: Mildly limited, patients (%) (FAS): (11.47%)
SAQ Question 1-6: Moderately limited, patients (%) (FAS): (9.24%)
SAQ Question 1-6: Not limited, patients (%) (FAS): (42.11%)
SAQ Question 1-6: Other reasons, patients (%) (FAS): (0.83%)
SAQ Question 1-6: Severely limited, patients (%) (FAS): (2.22%)
SAQ Question 1-6: Slightly limited, patients (%) (FAS): (34.12%)
SAQ Question 1-7: Mildly limited, patients (%) (FAS): (22.01%)
SAQ Question 1-7: Moderately limited, patients (%) (FAS): (6.75%)
SAQ Question 1-7: Not limited, patients (%) (FAS): (22.08%)
SAQ Question 1-7: Other reasons, patients (%) (FAS): (2.53%)
SAQ Question 1-7: Severely limited, patients (%) (FAS): (11.67%)
SAQ Question 1-7: Slightly limited, patients (%) (FAS): (34.95%)
SAQ Question 1-8: Mildly limited, patients (%) (FAS): (25.02%)
SAQ Question 1-8: Moderately limited, patients (%) (FAS): (11.91%)
SAQ Question 1-8: Not limited, patients (%) (FAS): (15.02%)
SAQ Question 1-8: Other reasons, patients (%) (FAS): (3.19%)
SAQ Question 1-8: Severely limited, patients (%) (FAS): (14.74%)
SAQ Question 1-8: Slightly limited, patients (%) (FAS): (30.12%)
SAQ Question 1-2 Not limited, number of patients [1]: 7
SAQ Question 1-2 Not limited, percent of patients [1]: (0.48%)
SAQ 2nd question: Clearly increased, % of cases (FAS): (0.21%)
SAQ 2nd question: Clearly increased, cases (FAS): 3
SAQ 2nd question: Clearly reduced, % of cases (FAS): (27.82%)
SAQ 2nd question: Clearly reduced, cases (FAS): 402
SAQ 2nd question: Same, % of cases (FAS): (39.24%)
SAQ 2nd question: Same, cases (FAS): 567
SAQ 2nd question: Slightly increased, % of cases (FAS): (7.40%)
SAQ 2nd question: Slightly increased, cases (FAS): 107
SAQ 2nd question: Slightly reduced, % of cases (FAS): (25.33%)
SAQ 2nd question: Slightly reduced, cases (FAS): 366
SAQ 3rd question: 1-2 times per week, % of cases (FAS): (25.33%)
SAQ 3rd question: 1-2 times per week, cases (FAS): 366
SAQ 3rd question: 1-3 times per day, % of cases (FAS): (7.40%)
SAQ 3rd question: 1-3 times per day, cases (FAS): 107
SAQ 3rd question: <1 time per week, % of cases (FAS): (27.82%)
SAQ 3rd question: <1 time per week, cases (FAS): 402
SAQ 3rd question: No onset, % of cases (FAS): (0.00%)
SAQ 3rd question: No onset, cases (FAS): 0
SAQ 3rd question: ≧3 times per week, % of cases (FAS): (39.24%)
SAQ 3rd question: ≧3 times per week, cases (FAS): 567
SAQ 3rd question: ≧4 times per day, % of cases (FAS): (0.21%)
SAQ 3rd question: ≧4 times per day, cases (FAS): 3
SAQ Question 1-3: Mildly limited, number of patients (FAS): 30
SAQ Question 1-3: Mildly limited, percent of patients (FAS): (2.08%)
SAQ Question 1-3: Moderately limited, number of patients (FAS): 6
SAQ Question 1-3: Moderately limited, percent of patients (FAS): (0.42%)
SAQ Question 1-3: Not limited, number of patients (FAS): 1206
SAQ Question 1-3: Not limited, percent of patients (FAS): (83.58%)
SAQ Question 1-3: Other reasons, number of patients (FAS): 9
SAQ Question 1-3: Other reasons, percent of patients (FAS): (0.62%)
SAQ Question 1-3: Severely limited, number of patients (FAS): 2
SAQ Question 1-3: Severely limited, percent of patients (FAS): (0.14%)
SAQ Question 1-3: Slightly limited, number of patients (FAS): 190
SAQ Question 1-3: Slightly limited, percent of patients (FAS): (13.17%)
SAQ Question 1-4: Mildly limited, number of patients (FAS): 177
SAQ Question 1-4: Mildly limited, percent of patients (FAS): (12.28%)
SAQ Question 1-4: Moderately limited, number of patients (FAS): 38
SAQ Question 1-4: Moderately limited, percent of patients (FAS): (2.64%)
SAQ Question 1-4: Not limited, number of patients (FAS): 775
SAQ Question 1-4: Not limited, percent of patients (FAS): (53.78%)
SAQ Question 1-4: Other reasons, number of patients (FAS): 10
SAQ Question 1-4: Other reasons, percent of patients (FAS): (0.69%)
SAQ Question 1-4: Severely limited, number of patients (FAS): 5
SAQ Question 1-4: Severely limited, percent of patients (FAS): (0.35%)
SAQ Question 1-4: Slightly limited, number of patients (FAS): 436
SAQ Question 1-4: Slightly limited, percent of patients (FAS): (30.26%)
SAQ Question 1-5: Mildly limited, number of patients (FAS): 189
SAQ Question 1-5: Mildly limited, percent of patients (FAS): (13.12%)
SAQ Question 1-5: Moderately limited, number of patients (FAS): 57
SAQ Question 1-5: Moderately limited, percent of patients (FAS): (3.96%)
SAQ Question 1-5: Not limited, number of patients (FAS): 783
SAQ Question 1-5: Not limited, percent of patients (FAS): (54.34%)
SAQ Question 1-5: Other reasons, number of patients (FAS): 8
SAQ Question 1-5: Other reasons, percent of patients (FAS): (0.56%)
SAQ Question 1-5: Severely limited, number of patients (FAS): 9
SAQ Question 1-5: Severely limited, percent of patients (FAS): (0.62%)
SAQ Question 1-5: Slightly limited, number of patients (FAS): 395
SAQ Question 1-5: Slightly limited, percent of patients (FAS): (27.41%)
SAQ Question 1-9: Mildly limited, % of cases (FAS): (20.40%)
SAQ Question 1-9: Mildly limited, cases (FAS): 285
SAQ Question 1-9: Moderately limited, % of cases (FAS): (21.19%)
SAQ Question 1-9: Moderately limited, cases (FAS): 296
SAQ Question 1-9: Not limited, % of cases (FAS): (6.08%)
SAQ Question 1-9: Not limited, cases (FAS): 85
SAQ Question 1-9: Other reasons, % of cases (FAS): (4.65%)
SAQ Question 1-9: Other reasons, cases (FAS): 65
SAQ Question 1-9: Severely-limited, % of cases (FAS): (27.13%)
SAQ Question 1-9: Severely-limited, cases (FAS): 379
SAQ Question 1-9: Slightly limited, % of cases (FAS): (20.54%)
SAQ Question 1-9: Slightly limited, cases (FAS): 287
SAQ 2nd question: Clearly increased, % of cases (PP): (0.21%)
SAQ 2nd question: Clearly increased, cases (PP): 3
SAQ 2nd question: Clearly reduced, % of cases (PP): (27.66%)
SAQ 2nd question: Clearly reduced, cases (PP): 390
SAQ 2nd question: Same, % of cases (PP): (39.15%)
SAQ 2nd question: Same, cases (PP): 552
SAQ 2nd question: Slightly increased, % of cases (PP): (7.38%)
SAQ 2nd question: Slightly increased, cases (PP): 104
SAQ 2nd question: Slightly reduced, % of cases (PP): (25.60%)
SAQ 2nd question: Slightly reduced, cases (PP): 361
SAQ 3rd question: 1-2 times per week, % of cases (PP): (25.60%)
SAQ 3rd question: 1-2 times per week, cases (PP): 361
SAQ 3rd question: 1-3 times per day, % of cases (PP): (7.38%)
SAQ 3rd question: 1-3 times per day, cases (PP): 104
SAQ 3rd question: <1 time per week, % of cases (PP): (27.66%)
SAQ 3rd question: <1 time per week, cases (PP): 390
SAQ 3rd question: No onset, % of cases (PP): (0.00%)
SAQ 3rd question: No onset, cases (PP): 0
SAQ 3rd question: ≧3 times per week, % of cases (PP): (39.15%)
SAQ 3rd question: ≧3 times per week, cases (PP): 552
SAQ 3rd question: ≧4 times per day, % of cases (PP): (0.21%)
SAQ 3rd question: ≧4 times per day, cases (PP): 3
SAQ Question 1-3: Mildly limited, number of patients (PP): 30
SAQ Question 1-3: Mildly limited, percent of patients (PP): (2.13%)
SAQ Question 1-3: Moderately limited, number of patients (PP): 6
SAQ Question 1-3: Moderately limited, percent of patients (PP): (0.43%)
SAQ Question 1-3: Not limited, number of patients (PP): 1179
SAQ Question 1-3: Not limited, percent of patients (PP): (83.74%)
SAQ Question 1-3: Other reasons, number of patients (PP): 9
SAQ Question 1-3: Other reasons, percent of patients (PP): (0.64%)
SAQ Question 1-3: Severely limited, number of patients (PP): 2
SAQ Question 1-3: Severely limited, percent of patients (PP): (0.14%)
SAQ Question 1-3: Slightly limited, number of patients (PP): 182
SAQ Question 1-3: Slightly limited, percent of patients (PP): (12.93%)
SAQ Question 1-4: Mildly limited, number of patients (PP): 172
SAQ Question 1-4: Mildly limited, percent of patients (PP): (12.23%)
SAQ Question 1-4: Moderately limited, number of patients (PP): 37
SAQ Question 1-4: Moderately limited, percent of patients (PP): (2.63%)
SAQ Question 1-4: Not limited, number of patients (PP): 754
